pIC50: −log10 of the molar value. Marks after values point to notes of the source that are not given here.
How the values were obtained:
[1] = target: EP2 subtype of the human PGE2 receptor (hEP2 receptor) (Homo sapiens, UniProt P43116); assay: cAMP antagonism test, human prostaglandin E2 (subtype EP2) receptor signal; assay type: cell-based
Summary of the method: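 Cells (625000 cells/ml, mixed with cAMP-d2) were preincubated 20 min at RT with compound ([…]). They were then stimulated 60 min at RT with a 3× PGE2 solution (1.5 nM) in PBS-IBMX and lysed for 20 min. cAMP was read by HTRF as the 665/620 nm ratio ×10000, with antagonism seen as a rise in FRET signal.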

[2] = tested on: fertility of the female rat; assay: Single administration of EP2 receptor antagonists and COX inhibitors alone or in combination, fertility of the rat (implantation sites); assay type: in vivo, female Han Wistar rats
Experimental: 6. Effect of a Single Administration of EP2 Receptor Antagonists and COX Inhibitors Alone or in Combination on the Fertility of the Rat
In the experiments below, female Han Wistar rats having a weight of 200-270 g were used. The animals were kept in Makrolon cages in rooms with controlled lighting (12 hours of darkness; 12 hours of light), fed with a standard diet and provided with water ad libitum.
EP2 receptor antagonists were dissolved in benzyl benzoate/castor oil (1+4 v/v), and the dose was administered in a volume of 1 ml/kg of body weight s.c. Optionally, EP2 receptor antagonists were also administered orally in the same vehicle as the COX inhibitors (see below). […]
The COX inhibitors were suspended in a carrier liquid (85 mg of Myrj®53 polyoxyl(50)stearate; CAS No. 9004-99-3) in 100 ml of 0.9% w/v NaCl solution), and the dose corresponding to the treatment group was administered in a volume of 2 ml/kg of body weight.
Prior to the start of the experiment, two cycles were observed using vaginal swabs. Only animals having a regular 4-day cycle were used in the experiment. The animals were randomized to the treatment groups.
The animals were treated once in the proestrus, the day in the cycle when the LH peak occurs in the evening, with the test substances either alone or in combination. On the evening of the proestrus, the female animals mated with a male rat. Successive mating was confirmed by detection of vaginal sperms in the vaginal swab the next morning. The effect on fertility was determined 9-15 days after mating by the number of implantation sites of the animals. […]

[3] = Table 6.4, single administration in proestrus, E16 4 mg/animal, 17:00, data of n = 4 animals
[4] = Table 6.5, single administration in proestrus, E16 0.25 mg/animal, 17:00
[5] = Table 6.5, single administration in proestrus, E16 0.5 mg/animal, 17:00
[6] = Table 6.5, single administration in proestrus, E16 1 mg/animal, 17:00
[7] = Table 6.5, single administration in proestrus, E16 2 mg/animal, 17:00, data of n = 4 animals
[8] = Table 6.5, single administration in proestrus, E16 4 mg/animal, 17:00
[9] = proestrus, oral administration of EP2 receptor antagonist 2 mg/animal, divided to 16:00 and 17:00
[10] = single administration in proestrus, E16 1 mg/animal, 16:00
[11] = single administration in proestrus, E16 2 mg/animal, 16:00
[12] = single administration in proestrus, E16 4 mg/animal, 7:00
[13] = single administration in proestrus, E16 4 mg/animal, 13:00, data of n = 5 animals
[14] = single administration in proestrus, E16 4 mg/animal, 16:00
[15] = single administration in proestrus, E16 8 mg/animal, 16:00, data of n = 5 animals
[16] = single administration in proestrus, E161 2 mg/animal, 18:00
[17] = Table 6.4, single administration in proestrus, Meloxicam 0.25 mg/animal, 17:00, data of n = 5 animals
[18] = Table 6.4, single administration in proestrus, Meloxicam 0.5 mg/animal, 17:00
[19] = Table 6.4, single administration in proestrus, Meloxicam 1 mg/animal, 17:00
[20] = Table 6.4, single administration in proestrus, Meloxicam 2 mg/animal, 17:00, data of n = 5 animals
[21] = Table 6.5, single administration in proestrus, Meloxicam 2 mg/animal, 17:00, data of n = 5 animals

Sequence of EP2 subtype of the human PGE2 receptor (hEP2 receptor) (P43116 whole entry): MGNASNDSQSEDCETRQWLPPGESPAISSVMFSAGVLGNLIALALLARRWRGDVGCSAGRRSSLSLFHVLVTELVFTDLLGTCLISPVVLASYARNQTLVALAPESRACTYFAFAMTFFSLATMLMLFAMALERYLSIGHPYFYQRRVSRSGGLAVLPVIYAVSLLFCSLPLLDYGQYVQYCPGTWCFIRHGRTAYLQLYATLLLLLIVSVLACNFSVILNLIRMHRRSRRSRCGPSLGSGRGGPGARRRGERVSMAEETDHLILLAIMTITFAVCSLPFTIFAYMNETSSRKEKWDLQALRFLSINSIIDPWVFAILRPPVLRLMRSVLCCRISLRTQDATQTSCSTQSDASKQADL

COCCNC(=O)c1ccc2nn(CC3CCN(C(=O)c4ccc(Oc5ccc(C(F)(F)F)cc5)cc4)CC3)cc2c1C [Example E16, N-(2-methoxyethyl)-4-methyl-2-[(1-{4-[4-(trifluoromethyl)phenoxy]benzoyl}piperidin-4-yl)methyl]-2H-indazole-5-carboxamide]
pIC50 [1]: < 7.30 | Absolute implantations number of 6 animals [2, 3]: 22** | Implantations per animal (mean ± SD) [2, 3]: 5.5 ± 5.4 | Absolute implantations number of 6 animals [2, 4]: 78 | Implantations per animal (mean ± SD) [2, 4]: 13 ± 2.3 | Absolute implantations number of 6 animals [2, 5]: 60 | Implantations per animal (mean ± SD) [2, 5]: 10 ± 2.8 | Absolute implantations number of 6 animals [2, 6]: 42 | Implantations per animal (mean ± SD) [2, 6]: 7 ± 5.4 | Absolute implantations number of 6 animals [2, 7]: 30** | Implantations per animal (mean ± SD) [2, 7]: 7.5 ± 1.7 | Absolute implantations number of 6 animals [2, 8]: 32 | Implantations per animal (mean ± SD) [2, 8]: 5.3 ± 4.5 | Absolute implantations number of 6 animals [2, 9]: 63 | Implantations per animal (mean ± SD) [2, 9]: 10.5 ± 1.5 | Absolute implantations number of 6 animals [2, 10]: 62 | Implantations per animal (mean ± SD) [2, 10]: 10.3 ± 2.5 | Absolute implantations number of 6 animals [2, 11]: 71 | Implantations per animal (mean ± SD) [2, 11]: 11.8 ± 2.1 | Absolute implantations number of 6 animals [2, 12]: 54 | Implantations per animal (mean ± SD) [2, 12]: 9.0 ± 3.4 | Absolute implantations number of 6 animals [2, 13]: 49* | Implantations per animal (mean ± SD) [2, 13]: 8.2 ± 3.1 | Absolute implantations number of 6 animals [2, 14]: 50 | Implantations per animal (mean ± SD) [2, 14]: 8.3 ± 3.4 | Absolute implantations number of 6 animals [2, 15]: 43* | Implantations per animal (mean ± SD) [2, 15]: 8.6 ± 2.8

COCCNC(=O)c1ccc2nn(CC3CCN(C(=O)c4ccc(Oc5ccc(C(F)(F)F)cn5)cc4)CC3)cc2c1C [Example E161, N-(2-methoxyethyl)-4-methyl-2-{[1-(4-{[5-(trifluoromethyl)pyridin-2-yl]oxy}benzoyl)piperidin-4-yl]methyl}-2H-indazole-5-carboxamide]
pIC50 [1]: < 7.30 | Absolute implantations number of 6 animals [2, 9]: 69 | Implantations per animal (mean ± SD) [2, 9]: 11.5 ± 3.1 | Absolute implantations number of 6 animals [2, 16]: 55 | Implantations per animal (mean ± SD) [2, 16]: 9.0 ± 3.4

COCCNC(=O)c1ccc2nn(CC3CCN(C(=O)c4ccc(-c5ccc(Cl)cc5F)cc4)CC3)cc2c1C [Example E196, 2-({1-[(4′-chloro-2′-fluorobiphenyl-4-yl)carbonyl]piperidin-4-yl}methyl)-N-(2-methoxy-ethyl)-4-methyl-2H-indazole-5-carboxamide]
pIC50 [1]: < 7.30

COCCNC(=O)c1ccc2nn(CC3CCN(C(=O)c4ccc(-c5ccc(F)cc5Cl)cc4)CC3)cc2c1C [Example E197, 2-({1-[(2′-chloro-4′-fluorobiphenyl-4-yl)carbonyl]piperidin-4-yl}methyl)-N-(2-methoxy-ethyl)-4-methyl-2H-indazole-5-carboxamide]
pIC50 [1]: < 7.30

COCCNC(=O)c1ccc2nn(CC3CCN(C(=O)c4ccc(-c5cncc(Cl)c5)cc4)CC3)cc2c1C [Example E198, 2-({1-[4-(5-chloropyridin-3-yl)benzoyl]piperidin-4-yl}methyl)-N-(2-methoxyethyl)-4-methyl-2H-indazole-5-carboxamide]
pIC50 [1]: < 7.30

COCCNC(=O)c1ccc2nn(CC3CCN(C(=O)c4ccc(-c5cncc(F)c5)cc4)CC3)cc2c1C [Example E199, 2-({1-[4-(5-fluoropyridin-3-yl)benzoyl]piperidin-4-yl}methyl)-N-(2-methoxyethyl)-4-methyl-2H-indazole-5-carboxamide]
pIC50 [1]: < 7.30

COCCNC(=O)c1ccc2nn(CC3CCN(C(=O)c4ccc(-c5cncc(C(F)(F)F)c5)cc4)CC3)cc2c1C [Example E200, N-(2-methoxyethyl)-4-methyl-2-[(1-{4-[5-(trifluoromethyl)pyridin-3-yl]benzoyl}-piperidin-4-yl)methyl]-2H-indazole-5-carboxamide]
pIC50 [1]: < 7.30

COCCNC(=O)c1ccc2nn(CC3CCN(C(=O)c4ccc(-c5ccc(C(C)(C)O)cc5)cc4)CC3)cc2c1C [Example E201, 2-[(1-{[4′-(2-hydroxypropan-2-yl)biphenyl-4-yl]carbonyl}piperidin-4-yl)methyl]-N-(2-methoxyethyl)-4-methyl-2H-indazole-5-carboxamide]
pIC50 [1]: < 7.30

COCCNC(=O)c1ccc2nn(CC3CCN(C(=O)c4ccc(-c5cc(F)cc(F)c5)cc4)CC3)cc2c1C [Example E202, 2-({1-[(3′,5′-difluorobiphenyl-4-yl)carbonyl]piperidin-4-yl}methyl)-N-(2-methoxy-ethyl)-4-methyl-2H-indazole-5-carboxamide]
pIC50 [1]: < 7.30

COCCNC(=O)c1ccc2nn(CC3CCN(C(=O)c4ccc(-c5ccc(F)cc5)c(C)c4)CC3)cc2c1C [Example E203, 2-({1-[(4′-fluoro-2-methylbiphenyl-4-yl)carbonyl]piperidin-4-yl}methyl)-N-(2-methoxyethyl)-4-methyl-2H-indazole-5-carboxamide]
pIC50 [1]: < 7.30

COCCNC(=O)c1ccc2nn(CC3CCN(C(=O)c4ccc(-c5cc(F)cc(F)c5)c(C)c4)CC3)cc2c1C [Example E204, 2-({1-[(3′,5′-difluoro-2-methylbiphenyl-4-yl)carbonyl]piperidin-4-yl}methyl)-N-(2-methoxyethyl)-4-methyl-2H-indazole-5-carboxamide]
pIC50 [1]: < 7.30

COCCNC(=O)c1ccc2nn(CC3CCN(C(=O)c4ccc(-c5cccnc5)c(C)c4)CC3)cc2c1C [Example E205, N-(2-methoxyethyl)-4-methyl-2-({1-[3-methyl-4-(3-pyridyl)benzoyl]piperidin-4-yl}-methyl)-2H-indazole-5-carboxamide]
pIC50 [1]: < 7.30

COCCNC(=O)c1ccc2nn(CC3CCN(C(=O)c4ccc(-c5ccncc5)c(C)c4)CC3)cc2c1C [Example E206, N-(2-methoxyethyl)-4-methyl-2-({1-[3-methyl-4-(4-pyridyl)benzoyl]piperidin-4-yl}-methyl)-2H-indazole-5-carboxamide]
pIC50 [1]: < 7.30

COCCNC(=O)c1ccc2nn(CC3CCN(C(=O)c4ccc(-c5ccccc5)c(C)c4)CC3)cc2c1C [Example E207, N-(2-methoxyethyl)-4-methyl-2-({1-[(2-methylbiphenyl-4-yl)carbonyl]piperidin-4-yl}-methyl)-2H-indazole-5-carboxamide]
pIC50 [1]: < 7.30

Cc1cnc(NC(=O)C2=C(O)c3ccccc3S(=O)(=O)N2C)s1 [Meloxicam, meloxicam, reference compound]
Absolute implantations number of 6 animals [2, 17]: 32* | Implantations per animal (mean ± SD) [2, 17]: 6.4 ± 5.9 | Absolute implantations number of 6 animals [2, 18]: 70 | Implantations per animal (mean ± SD) [2, 18]: 11.7 ± 6.4 | Absolute implantations number of 6 animals [2, 19]: 66 | Implantations per animal (mean ± SD) [2, 19]: 11 ± 5.5 | Absolute implantations number of 6 animals [2, 20]: 54* | Implantations per animal (mean ± SD) [2, 20]: 10.8 ± 4.4 | Absolute implantations number of 6 animals [2, 21]: 63* | Implantations per animal (mean ± SD) [2, 21]: 12.6 ± 3.4

Source: patent US9655887B2, “Pharmaceutical composition and the use thereof, and application regime of said pharmaceutical composition for on-demand contraception” (BAYER PHARMA AKTIENGESELLSCHAFT, priority 2013, dated 2017)
